Measured values taken from patent US10111881B2 (priority 2016, dated 2018).

Experiments:
MARV = assay: microbe, parasite or virus in culture; type: cell-based, Marburgvirus (Musoke strain); conditions: for IC50: read-out: IC-50 (MARV)
EBOV = assay: organism not typed; type: cell-based, Zaire Ebolavirus (Mayinga strain); conditions: for IC50: read-out: IC-50 (EBOV)

SMILES | Curve class (MARV) (MARV) | IC50 (MARV) [µM] | Curve Class (EBOV) (EBOV) | IC50 (EBOV) [µM]
COc1ccccc1CCN1CCCC(CN(C)CC(C)(C)CO)C1 (stereo not drawn) [MLS001162808] | 1.2 | 26.1 | 1.3 | 7.25
COc1ccc(C(CNC(=O)c2oc3ccc(OC)cc3c2C)N2CCCC2)cc1 (stereo not drawn) [MLS001150589] | 1.2 | 25.9 | 4 | –
C=C1CC(C)OC(c2ccccc2OCC(O)CN2CCCCC2)C1 (stereo not drawn) [MLS000042810] | 1.2 | 25.5 | 1.7 | –
O=C(CCCN1CCc2[nH]c3ccc(F)cc3c2C1)c1ccc(F)cc1 [MLS001173370] | – | 25.1 | 1.3 | 3.06
COc1ccc(C(C(=O)NC2CCCCC2)N(C(=O)CCl)c2ccc(C)cc2)cc1 (stereo not drawn) [MLS000583959] | 1.2 | 12.1 | 1.3 | 12.4
Cc1cc(OCCCCCNCCO)cc(C)c1Cl [MLS000106706] | 1.2 | 25.2 | 1.5 | 0.595
O=C1COc2ccc(C(=O)CCl)cc2N1 [MLS000780111] | – | ~38.8 | 4 | –
COc1ccccc1C(=O)O/N=C(\N)c1ccccn1 [MLS001045935] | 1.2 | 27.9 | 1.4 | –
OC(CN1CCCCC1)Cn1c2ccc(Cl)cc2c2cc(Cl)ccc21 (stereo not drawn) [MLS001181479] | 1.2 | 25.6 | 4 | –
Cc1cc(Nc2ccc(Cl)cc2)nc(N2CCOCC2)n1 [MLS001029946] | 1.2 | ~43.2 | 1.6 | 1.52
Cc1cccc(C)c1OCC(O)CNC(C)c1ccccc1.Cl (stereo not drawn) [MLS001177927] | 1.2 | 25.8 | 1.5 | 6.42
CN(C)CCCNC(=S)N1CCN(c2nc(-c3ccccc3)cs2)CC1 [MLS001207131] | 1.2 | 25.3 | 1.3 | 25.2
CCOc1cc(CNCCc2c[nH]c3ccccc23)cc(Cl)c1OC.Cl [MLS000718690] | 1.2 | 25.3 | – | 2.77
CN(C)CCCN(C(=O)c1ccc2ccccc2c1)c1nc2cc3c(cc2s1)OCO3.Cl [MLS001239325] | 1.3 | 13.3 | 1.7 | 1.55
COc1ccc(Nc2cc(C)nc3ccc(OC)cc23)cc1 [MLS001209453] | 1.2 | 12.5 | 1.3 | 3.4
CCN(CC)CCCNc1nc(CN2CCOCC2)nc2sc3c(c12)CCC3 [MLS000772389] | 1.2 | 24.8 | 1.6 | 3.51
Oc1ccc(N2CCN(Cc3ccc(OCCCN4CCCCC4)cc3)CC2)cc1 [MLS000736237] | 1.2 | 14 | 4 | –
Cc1ccc(NC(=O)ON=C2CCCC2)cc1 [MLS000569139] | 1.2 | 12.7 | 1.4 | –
Cc1cc(C(=O)c2ccccc2)c(NC(=O)CCl)s1 [MLS000567464] | 1.2 | ~44.4 | 1.6 | 25.2
Cc1ccc(NC(=O)CN(C)C(=O)Cn2ncc(Cl)c(Cl)c2=O)cc1 [MLS000336293] | – | 24 | 4 | –
Cc1cc(NC(=O)CCN2CCN(C/C=C/c3ccccc3)CC2)ccc1Br.Cl [MLS000999960] | – | 26.4 | 1.6 | 3.28
COc1ccc2c(c1)c(CCN)c(C)n2Cc1ccccc1.Cl [MLS001030162] | – | 25.3 | 1.3 | 6.41
Oc1ccc(Nc2ccnc3cc(Cl)ccc23)cc1 [MLS000737975] | – | 25.2 | 4 | –
Cc1cc(Cl)cc(C)c1OCCn1ccnc1 [MLS001196083] | – | 2.06 | – | 6.19
S=C(Nc1ccc(Cl)cc1)NC1CCN(Cc2ccccc2)CC1 [MLS000418057] | 1.2 | 25.6 | 4 | –
CC(C)(C)c1cc(/C=N/O)cc(C(C)(C)C)c1O [MLS000391984] | 1.2 | 6.12 | 1.4 | –

SMILES | Curve class (MARV) (MARV) | IC50 (MARV) [µM] | Curve Class (EBOV) (EBOV) | IC50 (EBOV) [µM]
CCCN1CCN(CCCNC(=O)c2cc3c(=O)[nH]c4ccc(C)cc4c3s2)CC1 [MLS000673118] | 1.2 | 25.1 | 1.3 | 25
CC1(C)CC(NC(=O)N2c3ccccc3Sc3ccccc32)CC(C)(C)N1 [MLS000332573] | 1.2 | 12.8 | 1.3 | 6.02
CCOC(=O)N1CCN(S(=O)(=O)c2ccc(C(=O)N(CCCN(C)C)c3nc4c(C)c(C)ccc4s3)cc2)CC1.Cl [MLS001239358] | – | 13 | 1.6 | 0.609
CCN1CCCC1CNCC(O)COc1ccc(C(C)(C)C)cc1C.O=C(O)C(=O)O (stereo not drawn) [MLS001018888] | 1.2 | 25.7 | 1.3 | 12.2
C=CCNCCOCCOc1ccc(Cl)cc1C(C)(C)C [MLS000666802] | – | 25.2 | 1.5 | 0.616
CCOC(=O)c1c(C)n(CC(O)CN(C)C)c2cc(Br)c(OC)cc12.Cl (stereo not drawn) [MLS000684231] | 1.2 | 4.88 | 1.3 | 6.48
CCN1CCN(CCCNC(=O)c2cc3cc4ccc(OC)cc4nc3o2)CC1 [MLS000091920] | 1.2 | 5.4 | 4 | –
CCCCN(CCCC)CCNC(=O)CSCc1ccc(C)cc1.O=C(O)C(=O)O [MLS000689481] | 1.2 | 12.8 | 1.3 | 12
Cc1c(C(=O)NCCN(C)C)oc2ccc(S(=O)(=O)N3CCCC3)cc12 [MLS000936795] | 1.2 | 25.4 | 1.4 | –
CCN(CC)CCNC(=O)c1ccc(NC(=O)c2ccccc2-c2ccc(C(F)(F)F)cc2)cc1 [MLS001175455] | 1.2 | 25.4 | 1.6 | 6.42
O=C(NC1CCCCC1)c1ccc(S(=O)(=O)N2CCCCC2)cc1 [MLS000063146] | 1.2 | 25.4 | 4 | –
COc1ccc(NC(=O)C2C3C=CC4(O3)C2C(=O)N(CCN2CCCCC2)C4C(=O)NC2CCCC(C)C2C)cc1 (stereo not drawn) [MLS000936259] | 1.2 | 25.3 | 1.3 | 12.5
CN(C)c1cc(NC(=O)CN2CCCC2)c2ccccc2n1.O=C(O)C(=O)O [MLS001047402] | 1.2 | 25.9 | 1.2 | 5.26
CCOc1cccc(CNCCO)c1OCc1ccc(Cl)cc1Cl.Cl [MLS000580080] | 1.2 | 25.1 | 1.3 | 24.6
O=C(C#Cc1ccccc1)c1ccco1 [MLS001174896] | – | 12.2 | – | 12.4
COc1ccc2c(c1)CC(N1CCN(C)CC1)c1cc(OC)ccc1S2.O=C(O)/C=C\C(=O)O (stereo not drawn) [MLS001179278] | 1.2 | 12.5 | 1.6 | 6.49
CCN(CCNCC(O)COc1ccccc1C(C)C)c1cccc(C)c1.O=C(O)C(=O)O (stereo not drawn) [MLS001179997] | – | 25.5 | 1.4 | –
Fc1ccc(C(c2nnnn2Cc2cccs2)N2CCN(C3CCCCC3)CC2)cc1 (stereo not drawn) [MLS000880330] | 1.2 | 25.8 | 1.6 | 6.38
Fc1ccc2c(c1)Sc1ccc(Cl)cc1CC2N1CCN(CCC2OCCO2)CC1 (stereo not drawn) [MLS001179272] | 1.3 | 25.4 | 1.5 | 0.691
CCN(CC)CCNC1=NCCn2c1cc1cc(OC)ccc12 [MLS000556387] | 1.2 | 25.5 | 1.6 | 2.93
O=C1C2CCCN2C(c2cccs2)N1c1ccc(Cl)cc1 (stereo not drawn) [MLS000092187] | 1.2 | 25.2 | 1.4 | –
Cc1cc(C)c2nc(C)cc(Nc3ccc(C(=O)NCCO)cc3)c2c1 [MLS000768081] | 1.2 | 13.8 | 4 | –
C=C1C(=O)c2sccc2C(c2ccc(OC)c(OC)c2)C1COC(C)=O (stereo not drawn) [MLS002702500] | 1.3 | 2.06 | – | 5.93
Cc1ccc(C(=O)N/C(=C/c2ccc(-c3ccc([N+](=O)[O-])cc3)o2)C(=O)NCCCN(C)C)cc1 [MLS001180408] | – | 12.5 | 4 | –
O=C(COC(=O)/C=C/c1cccs1)Nc1nc(-c2ccccc2)cs1 [MLS000391391] | 1.2 | 25.3 | 1.4 | –
Cc1ccccc1NC(=O)CSc1ccc(-c2ccccn2)nn1 [MLS001237534] | – | 24.8 | 4 | –
